In patent EP4745135A1 (Gluetacs Therapeutics (Shanghai) Co., Ltd., priority 2023, dated 2025):

How the values were obtained:
[1] = system: GSPT1; assay: Western blot, degradation of substrate protein in hPBMCs; type: cell-based, Human
[2] = target: T1, human Cereblon WT GST-tagged protein (Homo sapiens, UniProt Q96SW2); assay: CRBN-binding affinity, HTRF (CEREBLON BINDING kit); conditions: for inhibition at 0.5 µM: read-out: Inhibition Rate at 0.5 µM (%); for inhibition at 2 µM: read-out: Inhibition Rate at 2 µM (%)
T1 construct: purchased CISBIO 64BDCRBNPEH
T1 sequence (Q96SW2 whole entry): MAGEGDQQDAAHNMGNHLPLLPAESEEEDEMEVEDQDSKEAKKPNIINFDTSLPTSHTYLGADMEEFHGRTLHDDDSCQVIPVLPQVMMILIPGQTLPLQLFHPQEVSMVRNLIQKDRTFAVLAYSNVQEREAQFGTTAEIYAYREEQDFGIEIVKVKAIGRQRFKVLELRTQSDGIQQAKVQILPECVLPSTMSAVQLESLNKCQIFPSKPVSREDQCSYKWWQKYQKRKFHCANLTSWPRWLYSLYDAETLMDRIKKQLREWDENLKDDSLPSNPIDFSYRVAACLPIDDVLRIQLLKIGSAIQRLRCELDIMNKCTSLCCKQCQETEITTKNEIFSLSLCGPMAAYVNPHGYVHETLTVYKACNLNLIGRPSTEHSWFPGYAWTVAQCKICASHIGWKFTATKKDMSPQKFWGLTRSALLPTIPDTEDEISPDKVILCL

[3] = target: T2, WEE1 (Homo sapiens, UniProt P30291+Q96SW2); assay: Western blot, degradation of substrate protein in hPBMCs; type: cell-based
T2 construct: effects of the compounds of the present disclosure on the expression of target proteins in cells; endogenous in cells; host or cells: human PBMCs (Milecell Biotechnologies)
T2 sequence (P30291 whole entry): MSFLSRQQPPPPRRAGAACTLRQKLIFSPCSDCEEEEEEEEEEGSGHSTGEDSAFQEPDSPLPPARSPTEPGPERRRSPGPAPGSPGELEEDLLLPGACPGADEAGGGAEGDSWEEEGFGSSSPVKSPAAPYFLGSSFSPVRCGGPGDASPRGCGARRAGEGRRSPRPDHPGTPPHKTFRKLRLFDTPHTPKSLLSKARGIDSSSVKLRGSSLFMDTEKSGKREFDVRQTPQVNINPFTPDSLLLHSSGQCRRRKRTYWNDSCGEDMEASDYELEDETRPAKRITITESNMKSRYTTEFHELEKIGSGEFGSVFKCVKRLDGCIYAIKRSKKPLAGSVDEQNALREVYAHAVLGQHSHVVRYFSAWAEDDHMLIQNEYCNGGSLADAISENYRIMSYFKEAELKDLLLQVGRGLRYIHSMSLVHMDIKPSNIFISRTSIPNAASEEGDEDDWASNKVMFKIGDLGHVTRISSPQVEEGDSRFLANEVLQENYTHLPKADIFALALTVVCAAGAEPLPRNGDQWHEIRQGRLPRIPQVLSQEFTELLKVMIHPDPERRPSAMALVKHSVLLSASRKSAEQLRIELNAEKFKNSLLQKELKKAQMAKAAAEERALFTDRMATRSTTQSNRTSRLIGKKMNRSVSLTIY
T2 sequence (Q96SW2 whole entry): as the sequence (Q96SW2 whole entry) above
T2 sequence (Q16531 whole entry partner): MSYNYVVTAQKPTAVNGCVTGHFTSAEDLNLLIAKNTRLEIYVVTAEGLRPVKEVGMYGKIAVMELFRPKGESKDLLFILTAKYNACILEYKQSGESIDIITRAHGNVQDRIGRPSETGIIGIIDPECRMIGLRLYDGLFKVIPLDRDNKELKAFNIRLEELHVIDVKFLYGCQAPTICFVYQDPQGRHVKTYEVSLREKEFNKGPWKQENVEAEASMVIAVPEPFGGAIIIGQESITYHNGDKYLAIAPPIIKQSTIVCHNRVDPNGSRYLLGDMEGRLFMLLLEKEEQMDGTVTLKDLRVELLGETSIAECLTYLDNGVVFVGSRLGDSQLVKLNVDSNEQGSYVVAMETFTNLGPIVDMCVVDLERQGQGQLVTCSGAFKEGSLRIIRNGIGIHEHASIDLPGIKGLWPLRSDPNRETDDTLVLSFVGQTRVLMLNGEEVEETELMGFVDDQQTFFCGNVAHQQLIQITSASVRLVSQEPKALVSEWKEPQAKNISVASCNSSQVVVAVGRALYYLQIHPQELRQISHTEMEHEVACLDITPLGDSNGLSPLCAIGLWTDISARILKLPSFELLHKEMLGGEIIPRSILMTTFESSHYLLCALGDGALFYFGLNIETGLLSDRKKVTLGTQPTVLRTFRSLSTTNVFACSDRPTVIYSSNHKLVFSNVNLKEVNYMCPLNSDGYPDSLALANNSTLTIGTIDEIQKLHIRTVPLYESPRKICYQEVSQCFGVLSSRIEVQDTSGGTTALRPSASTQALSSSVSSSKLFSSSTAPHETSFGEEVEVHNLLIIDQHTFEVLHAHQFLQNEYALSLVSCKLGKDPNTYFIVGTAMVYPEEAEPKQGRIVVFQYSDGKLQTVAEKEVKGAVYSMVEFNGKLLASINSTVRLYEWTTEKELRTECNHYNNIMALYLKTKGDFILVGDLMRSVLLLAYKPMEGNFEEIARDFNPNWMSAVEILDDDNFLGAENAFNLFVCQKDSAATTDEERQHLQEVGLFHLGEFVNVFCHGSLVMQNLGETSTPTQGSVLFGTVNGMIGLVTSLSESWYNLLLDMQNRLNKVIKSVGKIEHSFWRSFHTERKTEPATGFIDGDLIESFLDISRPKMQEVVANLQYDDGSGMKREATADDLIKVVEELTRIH

[4] = target: T3, IKZF1 (Homo sapiens, UniProt Q13422+Q96SW2); assay: as above; type: cell-based
T3 construct: effects of the compounds of the present disclosure on the expression of target proteins in cells; endogenous in cells; host or cells: human PBMCs (Milecell Biotechnologies)
T3 sequence (Q13422 whole entry): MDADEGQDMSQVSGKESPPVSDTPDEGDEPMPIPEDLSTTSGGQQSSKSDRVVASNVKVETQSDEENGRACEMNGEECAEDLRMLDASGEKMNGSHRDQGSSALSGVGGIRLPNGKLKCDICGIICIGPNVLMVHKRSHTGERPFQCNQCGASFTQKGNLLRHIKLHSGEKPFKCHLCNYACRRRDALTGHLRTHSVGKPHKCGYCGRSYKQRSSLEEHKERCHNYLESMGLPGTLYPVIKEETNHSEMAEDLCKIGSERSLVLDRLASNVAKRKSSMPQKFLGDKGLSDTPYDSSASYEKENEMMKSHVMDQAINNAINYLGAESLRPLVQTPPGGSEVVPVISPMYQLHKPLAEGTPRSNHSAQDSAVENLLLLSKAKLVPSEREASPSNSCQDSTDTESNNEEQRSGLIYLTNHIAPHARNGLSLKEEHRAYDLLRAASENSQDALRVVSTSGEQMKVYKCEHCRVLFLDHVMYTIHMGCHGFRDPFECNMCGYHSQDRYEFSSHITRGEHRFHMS
T3 sequence (Q96SW2 whole entry): as the sequence (Q96SW2 whole entry) above
T3 sequence (Q16531 whole entry partner): as the sequence (Q16531 whole entry partner) above

[5] = target: T4, IKZF2 (Homo sapiens, UniProt Q96SW2+Q9UKS7); assay: as above; type: cell-based
T4 construct: effects of the compounds of the present disclosure on the expression of target proteins in cells; endogenous in cells; host or cells: human PBMCs (Milecell Biotechnologies)
T4 sequence (Q9UKS7 whole entry): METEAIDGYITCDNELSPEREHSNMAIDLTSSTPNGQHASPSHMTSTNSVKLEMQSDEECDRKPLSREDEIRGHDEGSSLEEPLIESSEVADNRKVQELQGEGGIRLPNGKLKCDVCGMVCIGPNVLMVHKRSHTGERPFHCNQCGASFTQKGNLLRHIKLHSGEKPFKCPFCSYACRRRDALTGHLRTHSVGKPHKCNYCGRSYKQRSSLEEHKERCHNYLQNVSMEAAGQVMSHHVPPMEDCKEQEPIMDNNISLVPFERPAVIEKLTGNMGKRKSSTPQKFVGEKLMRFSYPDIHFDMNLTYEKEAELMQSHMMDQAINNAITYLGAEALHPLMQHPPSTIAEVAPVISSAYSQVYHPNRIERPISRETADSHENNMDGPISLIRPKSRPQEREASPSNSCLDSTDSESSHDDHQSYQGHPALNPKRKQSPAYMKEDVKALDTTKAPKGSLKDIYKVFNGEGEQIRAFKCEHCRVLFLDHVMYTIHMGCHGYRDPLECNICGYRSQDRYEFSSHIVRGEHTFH
T4 sequence (Q96SW2 whole entry): as the sequence (Q96SW2 whole entry) above
T4 sequence (Q16531 whole entry partner): as the sequence (Q16531 whole entry partner) above

[6] = target: T5, CK1α (Homo sapiens, UniProt P48729+Q96SW2); assay: as above; type: cell-based
T5 construct: effects of the compounds of the present disclosure on the expression of target proteins in cells; endogenous in cells; host or cells: human PBMCs (Milecell Biotechnologies)
T5 sequence (P48729 whole entry): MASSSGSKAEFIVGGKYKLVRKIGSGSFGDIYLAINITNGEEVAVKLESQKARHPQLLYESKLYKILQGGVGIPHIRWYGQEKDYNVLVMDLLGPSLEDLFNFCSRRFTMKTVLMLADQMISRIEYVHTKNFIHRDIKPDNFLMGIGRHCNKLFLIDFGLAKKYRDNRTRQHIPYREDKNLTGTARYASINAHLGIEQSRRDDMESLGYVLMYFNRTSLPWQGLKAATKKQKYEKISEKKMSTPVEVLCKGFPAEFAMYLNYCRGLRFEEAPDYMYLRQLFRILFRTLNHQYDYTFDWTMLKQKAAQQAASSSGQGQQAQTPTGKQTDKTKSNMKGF
T5 sequence (Q96SW2 whole entry): as the sequence (Q96SW2 whole entry) above
T5 sequence (Q16531 whole entry partner): as the sequence (Q16531 whole entry partner) above

[7] = target: T6, IKZF3 (Homo sapiens, UniProt Q96SW2+Q9UKT9); assay: as above; type: cell-based
T6 construct: effects of the compounds of the present disclosure on the expression of target proteins in cells; endogenous in cells; host or cells: human PBMCs (Milecell Biotechnologies)
T6 sequence (Q9UKT9 whole entry): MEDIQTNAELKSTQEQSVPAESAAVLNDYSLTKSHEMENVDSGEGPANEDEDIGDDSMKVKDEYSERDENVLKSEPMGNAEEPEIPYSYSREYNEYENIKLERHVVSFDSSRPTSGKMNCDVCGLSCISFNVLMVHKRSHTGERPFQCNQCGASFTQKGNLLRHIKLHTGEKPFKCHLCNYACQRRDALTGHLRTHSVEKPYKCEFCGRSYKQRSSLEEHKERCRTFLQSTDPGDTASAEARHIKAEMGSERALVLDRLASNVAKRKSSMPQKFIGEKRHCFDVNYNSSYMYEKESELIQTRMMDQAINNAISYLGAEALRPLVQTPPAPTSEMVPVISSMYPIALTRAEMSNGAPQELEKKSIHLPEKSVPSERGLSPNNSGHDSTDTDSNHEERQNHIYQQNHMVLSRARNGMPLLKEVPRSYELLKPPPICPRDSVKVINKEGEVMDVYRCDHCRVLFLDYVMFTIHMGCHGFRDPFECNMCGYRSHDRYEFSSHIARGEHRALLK
T6 sequence (Q96SW2 whole entry): as the sequence (Q96SW2 whole entry) above
T6 sequence (Q16531 whole entry partner): as the sequence (Q16531 whole entry partner) above

[8] = 24 hours treatment, compounds at 50 nM and 500 nM (concentration behind the class not stated)
[9] = Western blot, 24 hours of compound treatment, compounds tested at 50 nM and 500 nM (concentration for the table not stated)

| SMILES | inhibition at 0.5 µM [2] [%] | inhibition at 2 µM [2] [%] | GSPT1 substrate protein remaining % [1, 8] | Wee1 substrate protein remaining % [3, 8] | IKZF 1 substrate protein remaining % [4, 8] | IKZF2 substrate protein remaining % [5, 8] | CK1α substrate protein remaining % [6, 8] | IKZF3 substrate protein remaining % [7, 8] | GSPT1 substrate protein remaining % [1, 9] | Wee1 substrate protein remaining % [3, 9] | IKZF 1 substrate protein remaining % [4, 9] | IKZF2 substrate protein remaining % [5, 9] | CK1α substrate protein remaining % [6, 9] | IKZF3 substrate protein remaining % [7, 9] |
| --- | --- | --- | --- | --- | --- | --- | --- | --- | --- | --- | --- | --- | --- | --- |
| O=C1CCC(N2Cc3c(CN4CCN(C(c5ccc(Cl)cc5)c5ccc(Cl)cc5)CC4)cccc3C2=S)C(=O)N1 (centres unmarked) [GT-08203, 3-(4-((4-(bis(4-chlorophenyl)methyl)piperazin-1-yl)methyl)-1-thioxoisoindolin-2-yl)piperidine-2,6-dione] | 30 to 40 | 53 to 60 | – | – | – | – | – | – | A (0% ≤ substrate protein remaining % ≤ 80%) | A (0% ≤ substrate protein remaining % ≤ 80%) | B (80%< substrate protein remaining %≤ 100%) | A (0% ≤ substrate protein remaining % ≤ 80%) | B (80%< substrate protein remaining %≤ 100%) | A (0% ≤ substrate protein remaining % ≤ 80%) |
| O=C1CCC(N2Cc3c(CN4C[C@H]5C[C@@H]4CN5C(c4ccccc4)c4ccccc4)cccc3C2=S)C(=O)N1 (stereo partly drawn) [GT-08208, 3-(4-(((1R,4R)-5-benzhydryl-2,5-diazabicyclo[2.2.1]heptan-2-yl)methyl)-1-thioxoisoindolin-2-yl)piperidine-2,6-dione] | 40 to 53 | 80 to 100 | – | – | – | – | – | – | A (0% ≤ substrate protein remaining % ≤ 80%) | A (0% ≤ substrate protein remaining % ≤ 80%) | B (80%< substrate protein remaining %≤ 100%) | A (0% ≤ substrate protein remaining % ≤ 80%) | B (80%< substrate protein remaining %≤ 100%) | B (80%< substrate protein remaining %≤ 100%) |
| O=C1CCC(N2Cc3c(CN4CCC(N(c5ccccc5)c5ccccc5)CC4)cccc3C2=S)C(=O)N1 (centres unmarked) [GT-08209, 3-(4-((4-(diphenylamino)piperidin-1-yl)methyl)-1-thioxoisoindolin-2-yl)piperidine-2,6-dione] | 60 to 80 | 80 to 100 | – | – | – | – | – | – | A (0% ≤ substrate protein remaining % ≤ 80%) | A (0% ≤ substrate protein remaining % ≤ 80%) | B (80%< substrate protein remaining %≤ 100%) | B (80%< substrate protein remaining %≤ 100%) | B (80%< substrate protein remaining %≤ 100%) | B (80%< substrate protein remaining %≤ 100%) |
| C[C@@H]1CN(C(c2ccccc2)c2ccccc2)CCN1Cc1cccc2c1CN(C1CCC(=O)NC1=O)C2=S (stereo partly drawn) [GT-08232, 3-(4-(((R)-4-benzhydryl-2-methylpiperazin-1-yl)methyl)-1-thioxoisoindolin-2-yl)piperidine-2,6-dione] | 40 to 53 | 80 to 100 | – | – | – | – | – | – | A (0% ≤ substrate protein remaining % ≤ 80%) | A (0% ≤ substrate protein remaining % ≤ 80%) | B (80%< substrate protein remaining %≤ 100%) | A (0% ≤ substrate protein remaining % ≤ 80%) | B (80%< substrate protein remaining %≤ 100%) | B (80%< substrate protein remaining %≤ 100%) |
| O=C1CCC(N2Cc3c(CN4C5CCC4CN(C(c4ccccc4)c4ccccc4)C5)cccc3C2=S)C(=O)N1 (centres unmarked) [GT-08235, 3-(4-((3-benzhydryl-3,8-diazabicyclo[3.2.1]octan-8-yl)methyl)-1-thioxoisoindolin-2-yl)piperidine-2,6-dione] | 40 to 53 | 80 to 100 | – | – | – | – | – | – | A (0% ≤ substrate protein remaining % ≤ 80%) | B (80%< substrate protein remaining %≤ 100%) | B (80%< substrate protein remaining %≤ 100%) | B (80%< substrate protein remaining %≤ 100%) | B (80%< substrate protein remaining %≤ 100%) | B (80%< substrate protein remaining %≤ 100%) |

Continued, in another order:

| inhibition at 0.5 µM [2] [%] | inhibition at 2 µM [2] [%] | SMILES | GSPT1 substrate protein remaining % [1, 8] | Wee1 substrate protein remaining % [3, 8] | IKZF 1 substrate protein remaining % [4, 8] | IKZF2 substrate protein remaining % [5, 8] | CK1α substrate protein remaining % [6, 8] | IKZF3 substrate protein remaining % [7, 8] | GSPT1 substrate protein remaining % [1, 9] | Wee1 substrate protein remaining % [3, 9] | IKZF 1 substrate protein remaining % [4, 9] | IKZF2 substrate protein remaining % [5, 9] | CK1α substrate protein remaining % [6, 9] | IKZF3 substrate protein remaining % [7, 9] |
| --- | --- | --- | --- | --- | --- | --- | --- | --- | --- | --- | --- | --- | --- | --- |
| 80 to 100 | 80 to 100 | O=C1CCC(N2Cc3cc(CN4CCN(c5cccs5)CC4)ccc3C2=S)C(=O)N1 (centres unmarked) [GT-08168, 3-(5-((4-(thiophen-2-yl)piperazin-1-yl)methyl)-1-thioxoisoindolin-2-yl)piperidine-2,6-dione] | A (0% ≤ substrate protein remaining % ≤ 80%) | A (0% ≤ substrate protein remaining % ≤ 80%) | B (80%< substrate protein remaining %≤ 100%) | B (80%< substrate protein remaining %≤ 100%) | B (80%< substrate protein remaining %≤ 100%) | B (80%< substrate protein remaining %≤ 100%) | – | – | – | – | – | – |
| 80 to 100 | 80 to 100 | O=C1CCC(N2Cc3cc(CN4CCN(c5ccsc5)CC4)ccc3C2=S)C(=O)N1 (centres unmarked) [GT-08169, 3-(5-((4-(thiophen-3-yl)piperazin-1-yl)methyl)-1-thioxoisoindolin-2-yl)piperidine-2,6-dione] | A (0% ≤ substrate protein remaining % ≤ 80%) | A (0% ≤ substrate protein remaining % ≤ 80%) | B (80%< substrate protein remaining %≤ 100%) | B (80%< substrate protein remaining %≤ 100%) | B (80%< substrate protein remaining %≤ 100%) | B (80%< substrate protein remaining %≤ 100%) | – | – | – | – | – | – |
| 30 to 40 | 60 to 80 | O=C1CCC(N2Cc3c(CN4CCN(C(c5ccccc5)c5ccccc5)CC4)cccc3C2=S)C(=O)N1 (centres unmarked) [GT-08191, 3-(4-((4-benzhydrylpiperazin-1-yl)methyl)-1-thioxoisoindolin-2-yl)piperidine-2,6-dione] | – | – | – | – | – | – | A (0% ≤ substrate protein remaining % ≤ 80%) | B (80%< substrate protein remaining %≤ 100%) | B (80%< substrate protein remaining %≤ 100%) | B (80%< substrate protein remaining %≤ 100%) | B (80%< substrate protein remaining %≤ 100%) | B (80%< substrate protein remaining %≤ 100%) |
| 53 to 60 | 60 to 80 | CC1(C)CN(Cc2cccc3c2CN(C2CCC(=O)NC2=O)C3=S)CCN1C(c1ccccc1)c1ccccc1 (centres unmarked) [GT-08231, 3-(4-((4-benzhydryl-3,3-dimethylpiperazin-1-yl)methyl)-1-thioxoisoindolin-2-yl)piperidine-2,6-dione] | – | – | – | – | – | – | A (0% ≤ substrate protein remaining % ≤ 80%) | A (0% ≤ substrate protein remaining % ≤ 80%) | B (80%< substrate protein remaining %≤ 100%) | A (0% ≤ substrate protein remaining % ≤ 80%) | B (80%< substrate protein remaining %≤ 100%) | B (80%< substrate protein remaining %≤ 100%) |
| 40 to 53 | 60 to 80 | O=C1CCC(N2Cc3c(CN4CCN(c5ccccc5)CC4)cccc3C2=S)C(=O)N1 (centres unmarked) [GT-08259, 3-(4-((4-phenylpiperazin-1-yl)methyl)-1-thioxoisoindolin-2-yl)piperidine-2,6-dione] | – | – | – | – | – | – | A (0% ≤ substrate protein remaining % ≤ 80%) | A (0% ≤ substrate protein remaining % ≤ 80%) | B (80%< substrate protein remaining %≤ 100%) | B (80%< substrate protein remaining %≤ 100%) | B (80%< substrate protein remaining %≤ 100%) | B (80%< substrate protein remaining %≤ 100%) |
